Experimental data reported in patent US8541379B2 (Ajinomoto Co., Inc., priority 2009, dated 2013).
Starred links: 1 amine or outer side, 2 acyl side, 3 side chain; linkers in the order of their positions; H or OH if unused. Non-standard residues stand in square brackets, D forms with d. No end group written: not given here. γGlu = O=C(O)[C@H](CCC(=O)[*:2])N[*:1]

Experiments:
human CaSR = target: T1, human CaSR (Homo sapiens, UniProt P41180, E1011Q); assay: Evaluation of CaSR agonist activity (Ca2+ fluorescence, hCaSR-transfected 293E cells); assay type: cell-based; conditions: 293E cells transfected with hCaSR/pcDNA3.1, Calcium 4 fluorescence, FLEX Station
T1 construct: expressed in transfected cells; host or cells: 293E cells (EBNA1-expressing HEK293, ATCC CRL-10852), transient transfection with Fugene6
T1 sequence (P41180 20-1078 E1011Q): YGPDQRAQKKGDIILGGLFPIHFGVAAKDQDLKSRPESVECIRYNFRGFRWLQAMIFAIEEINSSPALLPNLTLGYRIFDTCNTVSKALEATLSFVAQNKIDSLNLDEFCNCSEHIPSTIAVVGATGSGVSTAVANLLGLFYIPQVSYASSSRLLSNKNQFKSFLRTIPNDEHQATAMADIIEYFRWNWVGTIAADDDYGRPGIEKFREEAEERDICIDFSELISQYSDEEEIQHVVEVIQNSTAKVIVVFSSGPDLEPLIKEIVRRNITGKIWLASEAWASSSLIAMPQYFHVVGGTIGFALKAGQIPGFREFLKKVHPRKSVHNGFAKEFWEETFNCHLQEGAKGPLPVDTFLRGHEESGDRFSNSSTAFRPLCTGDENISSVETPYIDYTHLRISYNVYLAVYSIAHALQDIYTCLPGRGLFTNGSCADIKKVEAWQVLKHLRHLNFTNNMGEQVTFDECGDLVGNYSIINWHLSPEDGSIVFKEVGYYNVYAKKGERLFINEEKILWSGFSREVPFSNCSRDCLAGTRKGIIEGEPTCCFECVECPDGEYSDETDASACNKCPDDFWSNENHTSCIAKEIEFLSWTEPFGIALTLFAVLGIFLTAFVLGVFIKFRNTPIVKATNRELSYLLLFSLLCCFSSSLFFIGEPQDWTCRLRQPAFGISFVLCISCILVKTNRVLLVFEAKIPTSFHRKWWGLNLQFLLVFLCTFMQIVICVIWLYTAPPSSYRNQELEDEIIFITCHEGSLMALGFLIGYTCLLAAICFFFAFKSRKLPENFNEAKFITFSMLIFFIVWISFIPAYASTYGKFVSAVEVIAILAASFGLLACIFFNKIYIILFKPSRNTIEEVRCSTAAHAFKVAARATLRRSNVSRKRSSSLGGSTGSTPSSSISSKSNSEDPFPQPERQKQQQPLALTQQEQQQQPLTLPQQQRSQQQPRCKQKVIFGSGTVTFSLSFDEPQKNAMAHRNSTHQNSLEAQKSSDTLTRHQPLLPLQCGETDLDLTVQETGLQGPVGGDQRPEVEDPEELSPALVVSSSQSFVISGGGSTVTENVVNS
Protocol: 293E Cells (EBNA1-expresion HEK293 cells, ATCC No. CRL-10852) were cultivated in DMEN/Ham's-F12 (3.15/mL glucose-containing Dulbecco's modified Eagle medium, available from Nakaraitesk Company) supplemented with 10% fetal calf serum, in the presence of 200 μg/mL of G418 (available from Genetisin). The cultured cells were inoculated in F25 flask at a density of 3×10^6 cells/10 mL, the flask was allowed to stand over 24 hours in a CO2 incubator (5% CO2, 37° C.), and then the human CaSR-expression plasmid hCaSR/pcDNA3.1 was transformed or transfected with a reagent for transfection Fugene6 (available from Roche Company). The transfected plasmid was maintained in a CO2 incubator for 6 to 7 hours, then the cells were recovered using a 10% fetal calf serum-containing DMEM/Ham's-F12 and the cells were inoculated in each well of a poly-D-lysine coat 96-well plate (BD-Biocoat) at a density of 70,000 cells/well.
To each well of the 96-well plate, each test compound was dissolved in a 0.1% BSA-containing Assay Buffer in an amount of 50 μl/well, and then any change of the intensity of fluorescence was monitored over 3 minutes using FLEX Station (available from Molecular Devices Company).
Method for the Determination of EC50:
The difference (RFU (Max-Min)) between the maximum and minimum fluorescent intensities observed for each well before and after the addition of each specific test compound was determined by the automatic calculation using FLEX Station. The activity rate was calculated while the RFU (Max-Min) value observed when adding the compound at the maximum concentration was defined to be 100% and the RFU (Max-Min) value observed when using the 0.1% BSA-containing Assay Buffer free of any test compound was defined to be 0%, followed by subjecting the resulting data to the curve-fitting procedures using the spreadsheet software Xfit or Graph-Pad-Prism to thus determine the EC50 which was the concentration of the compound at the activity rate of 50%.
In addition, the same EC50-determining procedures used above were repeated except for using other dipeptides as Comparative Examples.

[1] = Quantitative sensory evaluation test of kokumi-imparting activity; assay type: in vivo, human; conditions: n=4; for Intensity of kokumi, Initial Taste: scale control 0, strong 3, very strong 5
Protocol: This quantitative sensory evaluation test was carried out according to the following procedures: The intensity of the kokumi-imparting activity observed for each test compound was determined as a value observed when blending 0.00001 to 0.5 g/dL of the corresponding test compound with the distilled water containing sodium glutamate (0.05 g/dL), inosinic acid monophosphate (0.05 g/dL), and sodium chloride (0.5 g/dL). […] The evaluation criteria are assumed to be as follows: control: 0 point; strong: 3 points; very strong: 5 points. Moreover, to clarify the criteria, the initial taste and the middle/after taste of γ-Glu-Val-Gly were set at 3.0 points, respectively. The scoring or rating was carried out using the method of line scale and more specifically, it was carried out by writing each corresponding score on a straight line on which points corresponding to −5˜0˜5 had been indicated. The panelists used in this test were defined to be persons who had been engaged in the development of seasonings for foods over not less than one year of the cumulative time period and who could judge that the difference in the titer between γ-Glu-Cys-Gly and γ-Glu-Val-Gly added to a solution having umami/salty taste is about 10 times (while confirming the ability of these persons at regular intervals). The evaluation was carried out at n (the number of panelists used)=4. The term “initial taste” means the taste which develops from 0 to 2 seconds after the sample is placed in the panelist's mouth, while the term “middle/after taste” means the taste which develops thereafter.
In addition, γ-Glu-Val-Gly, γ-Glu-Cys, γ-Glu-Val, γ-Glu-Ala and γ-Glu-Ser were likewise inspected for their kokumi-imparting effect according to the same procedures used above.

[2] = 0.2 g/dL in water with MSG 0.05, IMP 0.05, NaCl 0.5 g/dL
[3] = 0.01 g/dL in umami/salty solution
[4] = 0.01 g/dL in water with MSG 0.05, IMP 0.05, NaCl 0.5 g/dL
[5] = 0.001 g/dL in water with MSG 0.05, IMP 0.05, NaCl 0.5 g/dL, reference set at 3.0

CC[C@H](NC(=O)CC[C@H](N)C(=O)O)C(=O)O
EC50 (human CaSR): 0.21 µM

CC(C)(NC(=O)CC[C@H](N)C(=O)O)C(=O)O [γ-Glu-Aib]
EC50 (human CaSR): 15.4 µM

C[C@H](NC(=O)CC[C@H](N)C(=O)O)C(=O)O [γ-Glu-Ala]
EC50 (human CaSR): 1.24 µM | Sensory Evaluation Profile ([1]; 0.2 g/dL in umami/salty solution): Mainly the tastes similar to the sour | Intensity of kokumi, Middle/After Taste [1, 2]: 4.3 points | Intensity of kokumi, Initial Taste [1, 2]: 4.5 points

N[C@@H](CCC(=O)N[C@@H](CS)C(=O)O)C(=O)O [γ-Glu-Cys]
EC50 (human CaSR): 0.16 µM | Sensory Evaluation Profile [1, 3]: Mainly the middle and after tastes | Intensity of kokumi, Middle/After Taste [1, 4]: 3.1 points | Intensity of kokumi, Initial Taste [1, 4]: 3.1 points

CCCC[C@H](NC(=O)CC[C@H](N)C(=O)O)C(=O)O [γ-Glu-Nle, γ-L-glutamyl-L-norleucine]
EC50 (human CaSR): 4.41 µM

N[C@@H](CCC(=O)N[C@@H](CO)C(=O)O)C(=O)O [γ-Glu-Ser]
EC50 (human CaSR): 11 µM | Intensity of kokumi, Middle/After Taste [1, 2]: 3.0 points | Intensity of kokumi, Initial Taste [1, 2]: 3.6 points

C[C@@H](O)[C@H](NC(=O)CC[C@H](N)C(=O)O)C(=O)O [γ-Glu-Thr]
EC50 (human CaSR): 6.97 µM

CC(C)[C@H](NC(=O)CC[C@H](N)C(=O)O)C(=O)O [γ-Glu-Val]
EC50 (human CaSR): 1.03 µM | Sensory Evaluation Profile [1, 3]: The after taste was quite weak. | Intensity of kokumi, Middle/After Taste [1, 4]: 2.4 points | Intensity of kokumi, Initial Taste [1, 4]: 3.1 points

CC(C)(C)[C@H](NC(=O)CC[C@H](N)C(=O)O)C(=O)O [γ-Glu-tLeu]
EC50 (human CaSR): 3.06 µM

[γGlu]-Val-Gly
Intensity of kokumi, Middle/After Taste [1, 5]: 3.0 points | Intensity of kokumi, Initial Taste [1, 5]: 3.0 points
